Here are results for 18 compounds from US12091424B2, “Rapamycin derivatives” (NOVARTIS AG, priority 2017, dated 2024).

Each structure is given as a SMILES string.

One data set relates to mTORC1 signaling. Put plainly: MEF TSC1−/− cell-based assay for rapalog potency (pS6). The arrangement: species or system Mouse. The following applies: MEF TSC1−/− cells, average from multiple assays. The method, then:
Cell-based assay for rapalog potency determination. Rapalog potency was determined using MEF TSC1−/− cell based assay. MEF TSC1−/− cells are Mouse Embryonic Fibroblasts deficient in Tuberous sclerosis protein—TSC1, which negatively regulates mTORC1 signaling and thus display constitutive mTORC1 activation, resulting in phosphorylation (activation) of downstream molecules. This cell-based assay is used to measure inhibition (de-phosphorylation) of S6 and 4EBP1 by rapalogs or other mTOR inhibitors.
MEF TSC1−/− cells were plated on Poly-D-lysine coated 384 well Griener clear bottom plates and incubated overnight at 37° C., 5% CO2. […] Nuclei were visualized with Hoechst (ThermoFisher Scientific #H3570) staining. Cells were imaged (InCell 600) using respective fluorescence channels and the potency of mTOR inhibitors was defined by pS6 IC50 (nM).
In vitro potency of mTOR inhibitors was defined by pS6 IC50 (nM) in MEF TSC1−/− cells.

Another data set concerns the target FKBP51 (Homo sapiens (Human), UniProt Q13451). The data set can be described thus: SPR assay, binding affinity to FKBP51. The following applies: single-cycle kinetics. Here is the method:
(§1) SPR Assay to Determine Binding Affinity to FK506-Binding Proteins (FKBP). N-terminal avi-his6 tagged FKBP fusions to FKBP12, FKBP51 and FKBP52 were expressed in E. coli and purified using standard chromatography. Each protein was subsequently immobilized on a streptavidin chip in a Biacore 8K SPR instrument (GE Healthcare). Using single-cycle kinetics, compound titrations were flowed at 45 uL/min over each surface using 2-minute association and 30-minute dissociation phases in a buffer containing 50 mM Tris pH 7.5/150 mM NaCl/0.01% Tween 20/1 mM DTT/2% DMSO. The data was fit using low molecular weight (LMW) single-cycle kinetics. The equilibrium dissociation constants (KD) are reported.
On the technique in general: In SPR one partner is held on a chip, and binding of the other changes the refractive index at the surface.

The next data set concerns the target FKBP52 (Homo sapiens (Human), UniProt Q02790). The data set can be described thus: SPR assay, binding affinity to FKBP52. The following applies: single-cycle kinetics. The method, then: as §1
The next data set has as its target FKBP12 (Homo sapiens (Human), UniProt P62942). The data set can be described thus: SPR assay, binding affinity to FKBP12. The following applies: single-cycle kinetics. Here is the method: as §1
A further data set is described as follows: in vivo. The following applies: male, Sprague Dawley, rat, whole blood.
Data set [1] concerns S6K1 (Thr389) in FKBP12 knock-down 293T cells. Put plainly: S6K1 (Thr389) phosphorylation ELISA in FKBP12 knock-down 293T cells. It is filed as cell-based. The following applies: 2 hours treatment. (In general: ELISA stands for enzyme-linked immunosorbent assay.)
Protocol: Generating FKPB12 knock-down cells. […] Selection was performed with puromycin for 48 hours and cells were plated for colony formation. FKBP12 knock-down clones were screened by immunoblotting with an anti-FKBP12 antibody (Thermo Scientific, Pierce #PA1-026A).
WT, FKBP12 knock-down and FKBP12 knock-out 293T cells were plated at a density of 30,000 cells per well in poly-D-Lysine coated 96-well plates (Corning, #354461) in Dulbecco's modified Eagle's medium (ThermoFisher, #11995-065) supplemented with 10% fetal bovine serum (ThermoFisher, #16140-071). Cells were incubated at 37° C., 5% CO2 for 48 hours until they reached 80% confluence. […] Media supplemented with blank Dimethyl sulfoxide (DMSO) was used as a control for both compounds. Phosphorylated amounts of S6K1 (Thr389) were detected by a sandwich ELISA kit (Cell signaling, #7063C) following the manufacture's protocol.

Sequence of FKBP51 (Q13451 whole entry, the tested form may be a part): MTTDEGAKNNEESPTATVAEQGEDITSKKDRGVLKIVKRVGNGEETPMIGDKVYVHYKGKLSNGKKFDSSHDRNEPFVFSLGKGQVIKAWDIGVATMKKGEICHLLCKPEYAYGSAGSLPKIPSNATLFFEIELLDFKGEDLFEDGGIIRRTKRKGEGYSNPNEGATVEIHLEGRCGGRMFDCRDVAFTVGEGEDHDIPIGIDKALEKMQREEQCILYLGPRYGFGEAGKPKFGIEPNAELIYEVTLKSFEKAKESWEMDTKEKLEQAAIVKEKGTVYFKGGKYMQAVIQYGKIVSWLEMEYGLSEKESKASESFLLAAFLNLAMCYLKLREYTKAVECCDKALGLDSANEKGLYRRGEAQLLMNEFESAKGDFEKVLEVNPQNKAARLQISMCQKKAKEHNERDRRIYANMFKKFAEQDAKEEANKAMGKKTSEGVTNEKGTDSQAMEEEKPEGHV
Sequence of FKBP12 (P62942 whole entry): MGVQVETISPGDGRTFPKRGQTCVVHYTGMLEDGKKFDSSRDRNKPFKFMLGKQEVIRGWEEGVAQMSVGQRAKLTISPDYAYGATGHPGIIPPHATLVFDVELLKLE
Sequence of FKBP52 (Q02790 whole entry): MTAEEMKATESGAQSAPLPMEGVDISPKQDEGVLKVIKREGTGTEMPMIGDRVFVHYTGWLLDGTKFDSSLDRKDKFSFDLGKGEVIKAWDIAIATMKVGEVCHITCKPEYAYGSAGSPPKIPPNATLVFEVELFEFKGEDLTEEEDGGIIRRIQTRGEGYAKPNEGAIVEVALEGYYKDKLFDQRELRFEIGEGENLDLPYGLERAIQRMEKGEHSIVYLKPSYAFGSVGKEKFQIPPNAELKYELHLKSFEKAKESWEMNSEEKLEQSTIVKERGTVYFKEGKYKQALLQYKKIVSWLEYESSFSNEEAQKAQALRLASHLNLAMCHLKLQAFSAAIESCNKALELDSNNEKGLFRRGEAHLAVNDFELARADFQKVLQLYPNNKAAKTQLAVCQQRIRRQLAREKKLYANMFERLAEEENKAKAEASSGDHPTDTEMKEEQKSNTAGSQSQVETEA

Consider `CO[C@@H]1C[C@H](C[C@@H](C)[C@@H]2CC[C@H](C)/C=C(\C)[C@@H](O)[C@@H](OC)C(=O)[C@H](C)C[C@H](C)/C=C/C=C/C=C(\C)C(N3CCC3=O)C[C@@H]3CC[C@@H](C)[C@@](O)(O3)C(=O)C(=O)N3CCCC[C@H]3C(=O)O2)CC[C@H]1O` (single isomer, unassigned) [Example 3], for which the half-inhibitory concentration (IC50) in the data set on mTORC1 signaling (Mus musculus) is 1.45 nM. On the same count and under the same terms, for `CO[C@@H]1C[C@H](C[C@@H](C)[C@@H]2CC[C@H](C)/C=C(\C)[C@@H](O)[C@@H](OC)C(=O)[C@H](C)C[C@H](C)/C=C/C=C/C=C(\C)C(N3CCN(C)C3=O)C[C@@H]3CC[C@@H](C)[C@@](O)(O3)C(=O)C(=O)N3CCCC[C@H]3C(=O)O2)CC[C@H]1O` (single isomer, unassigned) [Example 4, C16-(3-methylimidazolidin-2-one-1-yl)-C32-deoxo-rapamycin] the value was above 500 nM; for `CO[C@@H]1C[C@H](C[C@@H](C)[C@@H]2CC[C@H](C)/C=C(\C)[C@@H](O)[C@@H](OC)C(=O)[C@H](C)C[C@H](C)/C=C/C=C/C=C(\C)C(N3CCN(CCO)C3=O)C[C@@H]3CC[C@@H](C)[C@@](O)(O3)C(=O)C(=O)N3CCCC[C@H]3C(=O)O2)CC[C@H]1O` (single isomer, unassigned) [Example 5], 153 nM. Turning to `CO[C@@H]1C[C@H](C[C@@H](C)[C@@H]2CC[C@H](C)/C=C(\C)[C@@H](O)[C@@H](OC)C(=O)[C@H](C)C[C@H](C)/C=C/C=C/C=C(\C)C(N3CCS3(=O)=O)C[C@@H]3CC[C@@H](C)[C@@](O)(O3)C(=O)C(=O)N3CCCC[C@H]3C(=O)O2)CC[C@H]1O` (single isomer, unassigned) [Example 6, C16-(1,1-dioxido-1,2-thiazetidin-2-yl)-C32-deoxo-rapamycin], the equilibrium dissociation constant (Kd) on FKBP51 is 39 nM; on FKBP52, 53 nM; on FKBP12 it was 0.32 nM. Moreover, the IC50 with mTORC1 signaling (Mus musculus) amounted to 0.17 nM. With `CO[C@@H]1C[C@H](C[C@@H](C)[C@@H]2CC[C@H](C)/C=C(\C)[C@@H](O)[C@@H](OC)C(=O)[C@H](C)C[C@H](C)/C=C/C=C/C=C(\C)C(N3CCS3(=O)=O)C[C@@H]3CC[C@@H](C)[C@@](O)(O3)C(=O)C(=O)N3CCCC[C@H]3C(=O)O2)CC[C@H]1O` (single isomer, unassigned) [Example 7, C16-(1,1-dioxido-1,2-thiazetidin-2-yl)-C32-deoxo-rapamycin], the Kd on FKBP51 worked out at 287 nM; on FKBP52, 236 nM; on FKBP12, 1.2 nM.

In the case of `CO[C@@H]1C[C@H](C[C@@H](C)[C@@H]2CC[C@H](C)/C=C(\C)[C@@H](O)[C@@H](OC)C(=O)[C@H](C)C[C@H](C)/C=C/C=C/C=C(\C)C(N3CCS3(=O)=O)C[C@@H]3CC[C@@H](C)[C@@](O)(O3)C(=O)C(=O)N3CCCC[C@H]3C(=O)O2)CC[C@H]1OP(C)(C)=O` (single isomer, unassigned) [Example 10, C16-(1,1-dioxido-1,2-thiazetidin-2-yl)-C32-deoxo-C40-dimethylphosphinyl-rapamycin], at FKBP51, binding was characterised by a dissociation constant (Kd) of 95 nM. This compound also displayed a concentration for half-maximal inhibition (IC50) in the data set on mTORC1 signaling (Mus musculus) of 0.557 nM. For the compound `CO[C@@H]1C[C@H](C[C@@H](C)[C@@H]2CC[C@H](C)/C=C(\C)[C@@H](O)[C@@H](OC)C(=O)[C@H](C)C[C@H](C)/C=C/C=C/C=C(\C)C(N3CCS3(=O)=O)C[C@@H]3CC[C@@H](C)[C@@](O)(O3)C(=O)C(=O)N3CCCC[C@H]3C(=O)O2)CC[C@H]1OP(C)(C)=O` (single isomer, unassigned) [Example 11, C16-(1,1-dioxido-1,2-thiazetidin-2-yl)-C32-deoxo-C40-dimethylphosphinyl-rapamycin], 3.33 nM corresponded to half-maximal inhibition with mTORC1 signaling (Mus musculus) (IC50). The same measure, in the same setting: the same measure for `CO[C@@H]1C[C@H](C[C@@H](C)[C@@H]2CC[C@H](C)/C=C(\C)[C@@H](O)[C@@H](OC)C(=O)[C@H](C)C[C@H](C)/C=C/C=C/C=C(\C)C(N3CCS3(=O)=O)C[C@@H]3CC[C@@H](C)[C@@](O)(O3)C(=O)C(=O)N3CCCC[C@H]3C(=O)O2)CC[C@@H]1n1cnnn1` (single isomer, unassigned) [Example 12]: 0.374 nM.

As for `CO[C@@H]1C[C@H](C[C@@H](C)[C@@H]2CC[C@H](C)/C=C(\C)[C@@H](O)[C@@H](OC)C(=O)[C@H](C)C[C@H](C)/C=C/C=C/C=C(\C)C(N3CCCS3(=O)=O)C[C@@H]3CC[C@@H](C)[C@@](O)(O3)C(=O)C(=O)N3CCCC[C@H]3C(=O)O2)CC[C@H]1OP(C)(C)=O` (single isomer, unassigned) [Example 15, C16-(1,1-dioxidoisothiazolidin-2-yl)-C32-deoxo-C40-dimethylphosphinyl-rapamycin], in the data set on mTORC1 signaling, the IC50 turned out to be 3.2 nM.

Turning to `CO[C@@H]1C[C@H](C[C@@H](C)[C@@H]2CC[C@H](C)/C=C(\C)[C@@H](O)[C@@H](OC)C(=O)[C@H](C)C[C@H](C)/C=C/C=C/C=C(\C)C(N3CCCS3(=O)=O)C[C@@H]3CC[C@@H](C)[C@@](O)(O3)C(=O)C(=O)N3CCCC[C@H]3C(=O)O2)CC[C@@H]1n1cnnn1` (single isomer, unassigned) [Example 17], half-maximal inhibition in the data set on mTORC1 signaling (Mus musculus) (IC50) was put at 1.1 nM. Still for that read-out and setting: for `CCOCCO[C@@H]1CC[C@@H](C[C@@H](C)[C@@H]2CC[C@H](C)/C=C(\C)[C@@H](O)[C@@H](OC)C(=O)[C@H](C)C[C@H](C)/C=C/C=C/C=C(\C)C(N3CCCS3(=O)=O)C[C@@H]3CC[C@@H](C)[C@@](O)(O3)C(=O)C(=O)N3CCCC[C@H]3C(=O)O2)C[C@H]1OC` (single isomer, unassigned) [Example 18, C16-(1,1-dioxidoisothiazolidin-2-yl)-C32-deoxo-C40-(2-ethoxyethoxy)-rapamycin] the value was 1.55 nM. Turning to `CO[C@@H]1C[C@H](C[C@@H](C)[C@@H]2CC[C@H](C)/C=C(\C)[C@@H](O)[C@@H](OC)C(=O)[C@H](C)C[C@H](C)/C=C/C=C/C=C(\C)[C@@H](N3CCCS3(=O)=O)C[C@@H]3CC[C@@H](C)[C@@](O)(O3)C(=O)C(=O)N3CCCC[C@H]3C(=O)O2)CC[C@H]1O` [Example 1, (S)—C16-(1,1-dioxidoisothiazolidin-2-yl)-C32-deoxo-rapamycin], the values for the Kd on FKBP51, on FKBP52 and on FKBP12 were 153 nM, 174 nM and 0.35 nM, respectively. Further, in the data set on mTORC1 signaling (Mus musculus), the 50% inhibitory concentration (IC50) is 2.4 nM. As for `CO[C@@H]1C[C@H](C[C@@H](C)[C@@H]2CC[C@H](C)/C=C(\C)[C@@H](O)[C@@H](OC)C(=O)[C@H](C)C[C@H](C)/C=C/C=C/C=C(\C)[C@H](N3CCCS3(=O)=O)C[C@@H]3CC[C@@H](C)[C@@](O)(O3)C(=O)C(=O)N3CCCC[C@H]3C(=O)O2)CC[C@H]1OCCO` [Example 16, (R)—C16-(1,1-dioxidoisothiazolidin-2-yl)-C32-deoxo-C40-(2-hydroxyethoxy)-rapamycin], the Kd on FKBP51 was 4060 nM. This compound yielded an IC50 in the data set with mTORC1 signaling (Mus musculus) of 0.645 nM.

In the data set on mTORC1 signaling (Mus musculus), `CO[C@H]1C[C@@H]2CC[C@@H](C)[C@@](O)(O2)C(=O)C(=O)N2CCCC[C@H]2C(=O)O[C@H]([C@H](C)C[C@@H]2CC[C@@H](O)[C@H](OC)C2)CC[C@H](C)/C=C(\C)[C@@H](O)[C@@H](OC)C(=O)[C@H](C)C[C@H](C)/C=C/C=C/C=C/1C` [Intermediate 1, C32-deoxo-rapamycin, reference compound] displayed a half-maximal inhibitory concentration (IC50) of 0.092 nM. Still for that read-out and setting: the same measure for `CO[C@H]1C[C@@H]2CC[C@@H](C)[C@@](O)(O2)C(=O)C(=O)N2CCCC[C@H]2C(=O)O[C@H]([C@H](C)C[C@@H]2CC[C@@H](OCCO)[C@H](OC)C2)CC[C@H](C)/C=C(\C)[C@@H](O)[C@@H](OC)C(=O)[C@H](C)C[C@H](C)/C=C/C=C/C=C/1C` [Intermediate 3]: 0.0591 nM; for `CO[C@H]1C[C@@H]2CC[C@@H](C)[C@@](O)(O2)C(=O)C(=O)N2CCCC[C@H]2C(=O)O[C@H]([C@H](C)C[C@@H]2CC[C@@H](OP(C)(C)=O)[C@H](OC)C2)CC[C@H](C)/C=C(\C)[C@@H](O)[C@@H](OC)C(=O)[C@H](C)C[C@H](C)/C=C/C=C/C=C/1C` [Intermediate 4]: 0.066 nM. Still for that read-out and setting: for `CO[C@H]1C[C@@H]2CC[C@@H](C)[C@@](O)(O2)C(=O)C(=O)N2CCCC[C@H]2C(=O)O[C@H]([C@H](C)C[C@@H]2CC[C@H](n3cnnn3)[C@H](OC)C2)CC[C@H](C)/C=C(\C)[C@@H](O)[C@@H](OC)C(=O)[C@H](C)C[C@H](C)/C=C/C=C/C=C/1C` [Intermediate 5] the value was 0.106 nM.

`CO[C@H]1C[C@@H]2CC[C@@H](C)[C@@](O)(O2)C(=O)C(=O)N2CCCC[C@H]2C(=O)O[C@H]([C@H](C)C[C@@H]2CC[C@@H](OCCO)[C@H](OC)C2)CC(=O)[C@H](C)/C=C(\C)[C@@H](O)[C@@H](OC)C(=O)[C@H](C)C[C@H](C)/C=C/C=C/C=C/1C` [RAD001, everolimus, reference compound]: the Kd at FKBP51 was 811 nM. In the data set with mTORC1 signaling (Mus musculus), this compound displayed an IC50 of 0.05 nM. Besides, in “in vivo” (iv, 1 mg/kg), the clearance amounted to 32 mL/min/kg. Also, the bioavailability in the data set “in vivo” (oral, 3 mg/kg) stood at 19%. Further, in data set [1], the “maximum inhibition of S6K1(Thr389)” value is on record as 70%.

One may read the IC50 as the concentration needed to halve the response being measured. A high value points to weaker potency in that assay. By Kd is commonly meant the concentration at which binding is half-saturated. A high value points to a looser complex. A word on the clearance: it is the rate of elimination divided by the concentration. A high value points to a high capacity for elimination. In general, bioavailability refers to dose-corrected exposure relative to a reference, in per cent. Lower therefore signals little systemic uptake.
